According to patent USRE47350E1, “Pharmaceutical formulations containing dopamine receptor ligands” (Richter Gedeon Nyrt., priority 2008, dated 2019):
Where two headings read alike, the source gives them in different places. One block for each molecule: values may come before it.

Legend:
[1] = Hydrolytic degradation when formulated with commonly used excipients (general statements); assay type: physicochemical
Description: The formation of a degradation product such as De-BOC in a pharmaceutical formulation is detrimental to activity. Moreover, if the amount of degradation product exceeds FDA guidelines, additional safety and toxicology testing must be undertaken. Thus, it is important that stable and bioavailable formulations containing, for example, cariprazine and its salts, be developed, in which the amount of degradation product present falls within accepted FDA guidelines.
The preparation of stable and bioavailable dosage forms containing compounds of formula (I) is; however, not straightforward.

[2] = Double-blind placebo controlled single dose pharmacokinetic study of cariprazine capsules in healthy male volunteers (Example 4); assay type: in vivo, human; conditions: for Cmax / Tmax / half-life / AUC(0-t): male, human, plasma, oral; for AUC(0-t): read-out: AUC0-168
Procedure: The pharmacokinetic parameters described herein include area under the plasma concentration-time curve (AUC0-t and AUC0-∞), maximum plasma concentration (Cmax), time of maximum plasma concentration (Tmax) and terminal elimination half-life (T1/2). The time of maximum concentration, Tmax, is determined as the time corresponding to Cmax. Area under the plasma concentration-time curve up to the time corresponding to the last measurable concentration (AUC0-t) is calculated by numerical integration using the linear trapezoidal rule as follows: The terminal half-life (T1/2) is calculated using the following equation: The area under the plasma concentration-time curve from time zero to infinity is calculated according to the following equation: A double-blind, placebo controlled single dose study of the pharmacokinetic parameters of cariprazine (capsules) in healthy male volunteers was conducted. [table] The composition of the capsules is given below in Table 31. The mean pharmacokinetic parameters observed after administration of a single dose of 0.5 to 2.5 mg cariprazine are shown below in Table 32.

[3] = Linear calculated pharmacokinetic parameters (Table 33); assay type: in vivo; conditions: human, plasma, po; for AUC(0-t): read-out: Mean AUC0-168
Procedure: Linear calculated pharmacokinetic parameters (based on the 2.0 mg data (Table 35, 80% of AUClast, Treatment I) for dosages greater than 2.0 mg and on the 0.5 mg data for dosages lower than 0.5 mg (Table 33) are shown in Table 33.

[4] = Single-center, randomized, open-label, parallel-group single-dose study, 2-mg tablet fasted/fed (Example 5); assay type: in vivo; conditions: both sexes, human, plasma, po, mean, single oral 2-mg tablet; for half-life: read-out: T½ (converted)
Procedure: The objectives of this study were (i) to assess the effect of food on the oral bioavailability of cariprazine (2-mg tablet), (ii) to assess the effect of gender on the oral bioavailability of cariprazine after a single oral dose (2-mg tablet), and (iii) to evaluate the pharmacokinetics of cariprazine and its metabolites after an oral dose (2-mg tablet). This clinical study was conducted as a single-center, randomized, open-label, parallel-group single-dose study. A total of 42 healthy male and female patients aged 18-45 years were selected, with an approximate male-to-female ratio of 1:1. Dosing occurred in two treatment sessions (Treatment 1 and Treatment 2) separated by 5 to 7 days. The subjects were randomized with ˜1:1 male-female ratio to receive one of the following two treatments: • Treatment 1: • Single oral dose of one 2-mg cariprazine tablet under fasted conditions (12 female, 11 male subjects) • Treatment 2: • Single oral dose of one 2-mg cariprazine tablet under fed conditions (10 female, 9 male subjects) Subjects were given the study drug with 240 mL of water in the clinic under fed/fasted conditions at 0800 hours on Day 1. Subjects taking Treatment 1 underwent a 10-hour overnight fast before dosing on Day 1 and continued fasting for an additional 4 hours postdose. Subjects taking Treatment 2 underwent a 10-hour overnight fast before eating a US Food and Drug Administration standardized high-fat breakfast at 0730 hours on Dosing Day 1. This study was 30 days in duration (Day −1 through the last pharmacokinetic (PK) blood sample collection on Day 29). Blood sampling was performed at the following times to determine cariprazine plasma concentrations: 0.0 (predose), 0.5, 1, 2, 3, 4, 6, 8, 12, 24, 36, 48, 72, 96, 168, 336, 504 and 672 hours postdose.

[5] = Multiple dose study in healthy male volunteers (Example 6); assay type: in vivo; conditions: human, plasma, fasted; for AUC: read-out: AUC0-τ
Procedure: Thirty-two healthy male subjects (mean age=24.9 years) were randomized into 4 groups (I-IV). In each group, 2 subjects received placebo and 6 subjects received one of the following treatments: • (I) 7 doses of 0.5 mg cariprazine administered every other day; • (II) 14 doses of 0.5 mg cariprazine every day; • (III) 2 doses of 0.5 mg cariprazine followed by 12 doses of 1.0 mg cariprazine every day; and • (IV) 21 doses of 1.0 mg cariprazine every day. Plasma samples were analyzed for cariprazine by a validated LC-MS/MS assay (Internal Standards: deuterated compounds; Sample preparation: Liquid-liquid extraction after alkalization; Sample Volume: 1 mL; Calibration Range: 0.05-25 ng/mL; Inonization: +ESI with MRM mode). The design of the study is shown below in Table 35. [table]

[6] = mean, single dose 0.5 mg capsules, fasted, Group III Period 1
[7] = mean, single dose 1 mg capsules, fasted, Group I Period 1
[8] = mean, single dose 1.5 mg capsules, fasted, Group II Period 2
[9] = mean, single dose 2 mg capsules, fasted, Group I Period 2
[10] = mean, single dose 2.5 mg capsules, fasted, Group II Period 1
[11] = 0.5 mg, Group I: 7 doses of 0.5 mg every other day
[12] = 0.5 mg, Group II: 14 doses of 0.5 mg every day
[13] = 1 mg, Group IV: 21 doses of 1.0 mg every day
[14] = Group III: 2 doses of 0.5 mg followed by 12 doses of 1.0 mg every day

dose proportionality of exposure relative to mean AUC ([2]; single-dose range of 0.5 mg to 2.5 mg): approximate dose proportionality
Compound: CN(C)C(=O)N[C@H]1CC[C@H](CCN2CCN(c3cccc(Cl)c3Cl)CC2)CC1.Cl [cariprazine hydrochloride, trans-1{4-[2-[4-(2,3-dichlorophenyl)-piperazin-1-yl]-ethyl]-cyclohexyl}-3,3-dimethyl-urea hydrochloride]
stability toward hydrolytic degradation product formation [1]: undergoes hydrolytic cleavage of the amide bond

Cmax ([3]; dose 0.1 mg): 0.03 ng/mL
AUC(0-t) ([3]; dose 0.1 mg): 2.82 ng·h/mL
Cmax ([3]; dose 0.25 mg): 0.09 ng/mL
AUC(0-t) ([3]; dose 0.25 mg): 1.05 ng·h/mL
Cmax ([3]; dose 3 mg): 3.8 ng/mL
AUC(0-t) ([3]; dose 3 mg): 96.8 ng·h/mL
Cmax ([3]; dose 4.5 mg): 5.7 ng/mL
AUC(0-t) ([3]; dose 4.5 mg): 145 ng·h/mL
Cmax ([3]; dose 5 mg): 6.33 ng/mL
AUC(0-t) ([3]; dose 5 mg): 161 ng·h/mL
Cmax ([3]; dose 6 mg): 7.6 ng/mL
AUC(0-t) ([3]; dose 6 mg): 194 ng·h/mL
Cmax ([3]; dose 7.5 mg): 9.5 ng/mL
AUC(0-t) ([3]; dose 7.5 mg): 242 ng·h/mL
Cmax ([3]; dose 9 mg): 11.4 ng/mL
AUC(0-t) ([3]; dose 9 mg): 290 ng·h/mL
Cmax ([3]; dose 12.5 mg): 15.8 ng/mL
AUC(0-t) ([3]; dose 12.5 mg): 404 ng·h/mL
Cmax ([3]; dose 15 mg): 19 ng/mL
AUC(0-t) ([3]; dose 15 mg): 484 ng·h/mL
AUC(0-inf) ([4]; Fed): 97 ng·h/mL
AUC(0-t) ([4]; Fed): 89.2 ng·h/mL
Cmax ([4]; Fed): 1.72 ng/mL
Tmax ([4]; Fed): 9.21 h
half-life ([4]; Fed): 198 h
AUC(0-inf) ([4]; Treatment 1 (Fasted)): 89.9 ng·h/mL
AUC(0-t) ([4]; Treatment 1 (Fasted)): 80.7 ng·h/mL
Cmax ([4]; Treatment 1 (Fasted)): 1.99 ng/mL
Tmax ([4]; Treatment 1 (Fasted)): 4.91 h
half-life ([4]; Treatment 1 (Fasted)): 203 h
Cmax [2, 6]: 0.14 ng/mL
Tmax [2, 6]: 6 h
half-life [2, 6]: 217 h
AUC(0-t) [2, 6]: 14.1 ng·h/mL
Cmax [2, 7]: 0.76 ng/mL
Tmax [2, 7]: 3 h
half-life [2, 7]: 185 h
AUC(0-t) [2, 7]: 35.4 ng·h/mL
Cmax [2, 8]: 1.19 ng/mL
Tmax [2, 8]: 3 h
half-life [2, 8]: 130 h
AUC(0-t) [2, 8]: 46.7 ng·h/mL
Cmax [2, 9]: 2.53 ng/mL
Tmax [2, 9]: 3 h
half-life [2, 9]: 130 h
AUC(0-t) [2, 9]: 95.3 ng·h/mL
Cmax [2, 10]: 2.5 ng/mL
Tmax [2, 10]: 4 h
half-life [2, 10]: 138 h
AUC(0-t) [2, 10]: 97.5 ng·h/mL
Tmax ([2]; single dose 0.5 to 2.5 mg): 3 to 6 h
Cmax [5, 11]: 1.03 ng/mL
AUC [5, 11]: 32.9 ng·h/mL
Tmax ([5]; 0.5 mg, Group I: 7 doses of 0.5 mg every other day, read-out: tmax): 4 h
Cmax [5, 12]: 1.42 ng/mL
AUC [5, 12]: 25 ng·h/mL
Tmax ([5]; 0.5 mg, Group II: 14 doses of 0.5 mg every day, read-out: tmax): 3.5 h
Cmax [5, 13]: 3.9 ng/mL
AUC [5, 13]: 56.8 ng·h/mL
Tmax ([5]; 1 mg, Group IV: 21 doses of 1.0 mg every day, read-out: tmax (range only printed)): 2 to 3 h
Cmax [5, 14]: 3.19 ng/mL
AUC [5, 14]: 53.6 ng·h/mL
Tmax ([5]; Group III: 2 doses of 0.5 mg followed by 12 doses of 1.0 mg every day, read-out: tmax): 4 h
Compound: CN(C)C(=O)N[C@H]1CC[C@H](CCN2CCN(c3cccc(Cl)c3Cl)CC2)CC1 [cariprazine, trans-1{4-[2-[4-(2,3-dichlorophenyl)-piperazin-1-yl]-ethyl]-cyclohexyl}-3,3-dimethyl-urea]
